Results: patent publication US20040121946A9, “Inducing cellular immune responses to her2/neu using peptide and nucleic acid compositions” (priority 2002, published 2004)
Read-outs that look alike come from different tables or passages of the source. Where a SMILES comes first, the peptide text is derived from it. Where no end group is shown, it is not given here. [ ]: non-standard residue; d: D form. Abu = CC[C@H](N)C(=O)O

Legend:
[1] = target: HLA-A*0101 (Homo sapiens, UniProt P04439, A114D/A174V/A182V/D101N/D185E/E176A/E190D/L180R/Q94H/R68K/S129P/T187R/V100A/V91M/W191G); assay type: binding; details: Table XXV, HLA-A1 motif-bearing peptides
[2] = tested on: .221A2.1 cell line, peptide-loaded target; test: Primary in vitro CTL induction, peptide-specific recognition (51Cr release / in situ IFNγ ELISA); assay type: cell-based, human; details: normal donors, peptide-pulsed targets
Method: The colon adenocarcinoma cell lines SW403 and HT-29 were obtained from the American Type Culture Collection (ATCC) (Rockville, Md.). The cell lines that were obtained from ATCC were maintained under the culture conditions recommended by the supplier. […] The colon cancer cells were treated with 100U/ml IFNγ (Genzyme) for 48 hours at 37° C. before use as targets in the ^51Cr release and in situ IFNγ assays.
The monocytes were purified by plating 10×10^6 PBMC/well in a 6-well plate. After 2 hours at 37° C., the non-adherent cells were removed by gently shaking the plates and aspirating the supernatants. The wells were washed a total of three times with 3 ml RPMI to remove most of the non-adherent and loosely adherent cells. Three ml of complete medium containing 50 ng/ml of GM-CSF and 1,000 U/ml of IL-4 were then added to each well. DC were used for CTL induction cultures following 7 days of culture.
Induction of CTL with DC and Peptide: CD8+ T-cells were isolated by positive selection with Dynal immunomagnetic beads (Dynabeads® M-450) and the detacha-bead® reagent. Typically about 200-250×10^6 PBMC were processed to obtain 24×10^6 CD8^+ T-cells (enough for a 48-well plate culture). Briefly, the PBMCs were thawed in RPMI with 30 μg/ml DNAse, washed once with PBS containing 1% human AB serum and resuspended in PBS/1% AB serum at a concentration of 20×10^6cells/ml. The magnetic beads were washed 3 times with PBS/AB serum, added to the cells (140 μl beads/20×10^6 cells) and incubated for 1 hour at 4° C. with continuous mixing. The beads and cells were washed 4× with PBS/AB serum to remove the nonadherent cells and resuspended at 100×10^6 cells/ml (based on the original cell number) in PBS/AB serum containing 100 μl/ml detacha-bead® reagent and 30 μg/ml DNAse. The mixture is incubated for 1 hour at room temperature with continuous mixing. The beads were washed again with PBS/AB/DNAse to collect the CD8+ T-cells. The DC were collected and centrifuged at 1300 rpm for 5-7 minutes, washed once with PBS with 1% BSA, counted and pulsed with 40 μg/ml of peptide at a cell concentration of 1-2×10^6/ml in the presence of 3 μg/ml β2-microglobulin for 4 hours at 20° C. The DC were then irradiated (4,200 rads), washed 1 time with medium and counted again.
Setting up induction cultures: 0.25 ml cytokine-generated DC (@1×10^5 cells/ml) were co-cultured with 0.25 ml of CD8+ T-cells (@2×10^6 cell/ml) in each well of a 48-well plate in the presence of 10 ng/ml of IL-7. rHuman IL10 was added the next day at a final concentration of 10 ng/ml and rhuman IL2 was added 48 hours later at 10 IU/ml.
Restimulation of the induction cultures with peptide-pulsed adherent cells: Seven and fourteen days after the primary induction the cells were restimulated with peptide-pulsed adherent cells. The PBMCS were thawed and washed twice with RPMI and DNAse. The cells were resuspended at 5×10^6 cells/ml and irradiated at ˜4200 rads. The PBMCs were plated at 2×10^6 in 0.5 ml complete medium per well and incubated for 2 hours at 37° C. The plates were washed twice with RPMI by tapping the plate gently to remove the nonadherent cells and the adherent cells pulsed with 10 μg/ml of peptide in the presence of 3 μg/ml β2 microglobulin in 0.25 ml RPMI/5%AB per well for 2 hours at 37° C. Peptide solution from each well was aspirated and the wells were washed once with RPMI. Most of the media was aspirated from the induction cultures (CD8+ cells) and brought to 0.5 ml with fresh media. […]

[3] = tested on: tumor targets that endogenously express HER2/neu (colon adenocarcinoma cell lines SW403 and HT-29); test: Primary in vitro CTL induction, recognition of wild-type peptide and endogenous tumor targets (51Cr release / in situ IFNγ ELISA); assay type: cell-based, human; details: in vitro, expanded positive cultures
[4] = target: HLA-A*0206 (Homo sapiens, UniProt P04439, D140Y/D185E/D98H/E176V/E277Q/F33Y/G131W/G231S/I119V/I121R/I166T/I218V/L300P/L318F/N151K/N90K/P208A/P217A/Q86G/Q94H/R138H/R169H/T345S); assay type: binding; details: Table XXII, A2 supermotif peptides and analogs
[5] = target: HLA-A*0203 (Homo sapiens, UniProt P04439, A173T/D140Y/D185E/D98H/E277Q/G131W/G231S/I119V/I121R/I166T/I218V/L180W/L300P/L318F/N151K/N90K/P208A/P217A/Q86G/Q94H/R138H/R169H/T345S); assay type: binding; details: Table XXII, A2 supermotif peptides and analogs
[6] = target: HLA-A*0201 (Homo sapiens, UniProt P04439, D140Y/D185E/D98H/E176V/E277Q/G131W/G231S/I119V/I121R/I166T/I218V/L300P/L318F/N151K/N90K/P208A/P217A/Q86G/Q94H/R138H/R169H/T345S); assay type: binding; details: Table XXII, A2 supermotif peptides and analogs
[7] = target: HLA-A*2402 (Homo sapiens, UniProt P04439, D101N/D140Y/D185E/E176V/E190D/F33S/G103R/G107R/I119L/I121M/I306V/K335N/L105A/L180Q/L300P/N151K/N90K/Q86E/Q94H/R106L/R138H/R89G/T104I/T345S/V100E/W191G/Y123F); assay type: binding; details: HLA-A24 motif-bearing peptides, Table XXVI
Excerpt: The corresponding peptide sequence are then synthesized and tested for binding to the appropriate allele-specific HLA molecule, HLA-A1 or HLA-24.

| Compound | induction of peptide-specific CTL [2] | recognition of wild-type peptide and of tumor targets endogenously expressing HER2/neu by induced CTL [3] | further results |
| --- | --- | --- | --- |
| CC(C)[C@H](NC(=O)[C@H](CS)NC(=O)[C@@H](NC(=O)[C@H](C)N)[C@@H](C)O)C(=O)N[C@H](C(=O)N[C@@H](C)C(=O)N[C@@H](CS)C(=O)N1CCC[C@H]1C(=O)N[C@@H](Cc1ccc(O)cc1)C(=O)O)[C@@H](C)O [Her2/neu.293.T2] | – | – | IC50 ([1]; read-out: A*[…]): 49 nM |
| CC(C)C[C@H](NC(=O)[C@H](CO)NC(=O)CNC(=O)[C@H](Cc1ccccc1)NC(=O)[C@H](CC(C)C)NC(=O)[C@@H](N)CCCCN)C(=O)N[C@@H](C)C(=O)N[C@@H](Cc1ccccc1)C(=O)N[C@H](C(=O)O)C(C)C [Her2/neu.369L2V9] | induced peptide-specific CTLs | also recognized the target tumor cells | – |
| CC(C)[C@H](NC(=O)[C@H](CS)NC(=O)[C@H](CCC(N)=O)NC(=O)[C@H](CC(=O)O)NC(=O)[C@H](C)NC(=O)[C@@H](N)CCC(=O)O)C(=O)N[C@@H](C)C(=O)N[C@@H](CS)C(=O)N[C@@H](C)C(=O)N[C@@H](Cc1c[nH]cn1)C(=O)N[C@@H](Cc1ccc(O)cc1)C(=O)O [Her2/neu.580] | – | – | IC50 [1]: 250 nM |
| CC[C@H](NC(=O)[C@H](CCCCN)NC(=O)[C@@H](NC(=O)[C@H](CCSC)NC(=O)[C@@H](NC(=O)[C@H](CC(C)C)NC(=O)[C@@H](N)Cc1ccc(O)cc1)[C@@H](C)CC)C(C)C)C(=O)N[C@@H](Cc1c[nH]c2ccccc12)C(=O)N[C@@H](CCSC)C(=O)N[C@H](C(=O)O)C(C)C [Her2/neu.952L2B7V10] (H-YLIMVK[Abu]WMV-OH) | induced peptide-specific CTLs in at least 2 donors | no wild-type peptide or endogenous recognition was observed | IC50 [4]: 11 nM; IC50 [5]: 77 nM; IC50 [6]: 7.2 nM |
| CC[C@H](NC(=O)[C@H](CC(C)C)NC(=O)[C@H](C)N)C(=O)N[C@@H](CCCNC(=N)N)C(=O)N[C@@H](Cc1c[nH]c2ccccc12)C(=O)NCC(=O)N[C@@H](CC(C)C)C(=O)N[C@@H](CC(C)C)C(=O)N[C@H](C(=O)O)C(C)C [Her2neu.5B3V9] (H-AL[Abu]RWGLLV-OH) | induced peptide-specific CTLs in at least 2 donors | no wild-type peptide or endogenous recognition was observed | IC50 [6]: 18 nM |
| CC(C)C[C@H](NC(=O)[C@H](CO)NC(=O)CNC(=O)[C@H](Cc1ccccc1)NC(=O)[C@@H](NC(=O)[C@@H](N)CCCCN)C(C)C)C(=O)N[C@@H](C)C(=O)N[C@@H](Cc1ccccc1)C(=O)N[C@H](C(=O)O)C(C)C [Position V2V9] | induced peptide-specific CTLs | also recognized the target tumor cells | – |
| H-VLLGVVFGV-OH [Her2/neu.665L2V9] | strong peptide-specific CTL response was observed | Peptide-specific CTL activity was maintained in some of the cultures, but no corresponding endogenous recognition was observed | – |
| RWGLLLAL [RWGLLLAL] | – | – | IC50 [7]: 480 nM |
| TYLPTNASL | – | – | IC50 [7]: 316 nM |
